Marks after values point to notes of the source that are not given here.
Experiments:
[1] = test system: rats; assay: Rat telemetry polysomnography (time in active wake and sleep stages); format: in vivo; settings: 100 mg/kg
Description: The mean time spent in sleep stages was determined in radio-telemetry-implanted mice, rats, dogs, and rhesus monkeys as first described by Renger and colleagues and subsequently by Winrow and colleagues with minor modifications. For baseline studies, recordings were taken continuously from unperturbed mice, rats, dogs, and monkeys for 6, 6, 10, or 5 days, respectively, and the mean time spent in all sleep stages in 30-min intervals were averaged and plotted onto a single 24-h period (Figure 1). Almorexant is a DORA [43] that was previously in clinical development for the treatment of insomnia. The clinical development program for almorexant was terminated in early 2011. […] In all cases, mean time in active wake, quiet wake, SWS, and REM sleep was determined for each 30-min interval for 3 days of each condition and averaged onto a single 24-h period. […] Statistical differences in mean time spent in active wake, quiet wake, SWS, and REM sleep between vehicle- and compound-treated groups at 30-min time points were determined by a linear mixed-effects model applied t-test.

[2] = Plasma and CSF compound levels in satellite rats; settings: rat, in vivo, 100 mg/kg
Description: Separately, the relationship between OX2R occupancy relative to plasma exposure was determined by administering DORA-12 intravenously (i.v.) over a range of doses to transgenic rats expressing human OX2R to determine a full occupancy curve over a wide range of plasma concentrations in order to define the maximal occupancy against which raw occupancy values could be normalized. This relationship was then used to determine the OX2R occupancy in PSG experiments from measured plasma concentrations.
Occupancy of human OX2R in transgenic rats expressing the receptor via the rat enolase promoter was performed ex vivo in radioligand-binding-displacement assays essentially as previously described with minor modifications. To determine the relationship between OX2R occupancy for a given compound over a full range of plasma and CSF concentrations, hOX2R-expressing rats were dosed i.v. with compound. Immediately following 30 min of i.v. administration, animals were anesthetized, sacrificed, and CSF, blood, and brain tissue were harvested and frozen for analysis. Frozen tissue was weighed and thawed coincident with homogenization. The homogenate was pelleted at 21,000 × g for 1 min and the pellet was resuspended. […] Non-specific binding was determined by the addition of 1000-fold excess unlabeled ligand. Experimental (dosed)-specific binding was compared with control (vehicle-dosed) binding ([specific total counts minus specific experimental counts]/specific total counts × 100 = percent occupancy). Raw occupancy values determined in this manner over a range of plasma and CSF values were then used to construct a normalized curve where the theoretical maximum occupancy value was defined as 100% and occupancies relative to plasma or CSF values were fit to a […] (hyperbola) curve (GraphPad Prism, San Diego, CA, USA). […] In separate experiments, plasma, CSF, and brain tissue was collected at time points following dosing to directly measure compound levels and corresponding OX2R occupancies at these times. Resulting occupancy relative to measured plasma levels of compound was fit to a normalized binding curve as described previously.

[3] = target: T1, OX2R (Rattus norvegicus, UniProt P56719); set-up: method as in earlier work; settings: ref 29 (Dugovic et al. 2009); cited from earlier work
T1 sequence (P56719 1-460): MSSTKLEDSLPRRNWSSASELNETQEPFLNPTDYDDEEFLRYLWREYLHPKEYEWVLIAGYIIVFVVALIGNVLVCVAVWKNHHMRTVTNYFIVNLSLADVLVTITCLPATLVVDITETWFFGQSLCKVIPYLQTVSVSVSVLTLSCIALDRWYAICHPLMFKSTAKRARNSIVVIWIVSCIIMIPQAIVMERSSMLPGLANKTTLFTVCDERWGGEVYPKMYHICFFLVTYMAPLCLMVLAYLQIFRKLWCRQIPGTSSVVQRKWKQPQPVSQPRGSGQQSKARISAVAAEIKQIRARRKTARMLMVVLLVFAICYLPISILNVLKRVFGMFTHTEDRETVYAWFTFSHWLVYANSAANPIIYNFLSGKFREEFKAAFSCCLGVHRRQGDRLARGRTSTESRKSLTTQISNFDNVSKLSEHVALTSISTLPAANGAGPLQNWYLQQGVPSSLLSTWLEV

[4] = target: T2, Orexin 2 receptor (Homo sapiens, UniProt O43614); assay: Orexin 2 receptor binding kinetics; settings: for T1/2 ON (binding half-life): almorexant applied 3-fold above its Kd (value an underestimate); for koff: read-out: KOFF (dissociation constant)
T2 sequence (O43614 1-444): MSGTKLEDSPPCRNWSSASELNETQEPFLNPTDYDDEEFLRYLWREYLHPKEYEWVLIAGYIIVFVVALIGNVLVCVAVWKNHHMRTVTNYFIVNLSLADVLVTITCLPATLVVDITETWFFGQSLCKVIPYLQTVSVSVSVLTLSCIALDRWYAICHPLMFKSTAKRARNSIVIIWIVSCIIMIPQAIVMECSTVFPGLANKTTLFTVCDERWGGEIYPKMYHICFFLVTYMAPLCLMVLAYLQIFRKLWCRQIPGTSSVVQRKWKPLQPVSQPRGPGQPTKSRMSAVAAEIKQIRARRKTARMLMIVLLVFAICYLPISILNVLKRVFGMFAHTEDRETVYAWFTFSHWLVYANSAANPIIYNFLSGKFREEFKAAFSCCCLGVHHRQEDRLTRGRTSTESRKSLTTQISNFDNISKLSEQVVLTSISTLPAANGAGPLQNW

[5] = target: T3, OX2R (Homo sapiens, UniProt O43614); assay: OX2R occupancy, ex vivo radioligand-binding displacement in transgenic rats expressing human OX2R; set-up: from tissue; host or cells: brain homogenate of transgenic rats expressing hOX2R under the rat enolase promoter; species or system transgenic rat; settings: satellite rats, 100 mg/kg, treatment at onset of inactive phase
T3 sequence (O43614 1-444): T2 sequence (O43614 1-444)
Description: Frozen tissue was weighed and thawed coincident with homogenization.

[6] = test system: rhesus monkeys; assay: Rhesus monkey polysomnography (active wake); format: in vivo; settings: 10 mg/kg p.o. 2 h before lights out, 10 mg/kg
Description: Animals were fed on a calorie-controlled diet of laboratory chow supplemented with fruit and vegetables. Water was available ad libitum with the exception of those monkeys trained to perform cognitive tasks, for which access was restricted for up to 4 h prior to and during cognitive testing. Treatment occurred at 14:40 (Zeitgeber time [ZT] 10:10) in a balanced 1-day cross-over design: 1 day of drug or vehicle followed by 6 days of baseline followed by 1 day of vehicle or drug. Cognition tasks were scheduled for next-day evaluation as described below. Sleep/wake architecture was scored according to vigilance state (active wake, quiet wake, delta sleep I, delta sleep II, and REM sleep) at 30-minute intervals and analyzed as previously described. Spectral analysis of continuous EEG was quantified between vehicle and compound after binning continuous frequencies into canonical frequency bands (reported herein: Delta, 0.5 – 4 Hz; Theta, 4.0 – 7 Hz; Gamma, 35.0 – 100.0 Hz). qEEG values are spectral power (uV2) log transformed before analysis and averaged over 30-minute intervals, expressed as means +/− SEM, and compared with vehicle using a mixed-model ANOVA at each time point with random effects for subject and date within subject in the R statistical computing environment (cran.us.r-project.org; the R Foundation for Statistical Computing, Vienna, Austria) using a linear mixed effects model for significance testing.

[7] = test system: rhesus monkeys; assay: Monkey Delayed Match to Sample (DMS) task; format: in vivo; settings: 10 mg/kg p.o., versus vehicle
Description: All cognition testing occurred in the animal’s home cage equipped with a touchscreen. Each DMS trial was initiated with a single ‘sample’ image (150 × 200 pixels: 1.8 inches × 2.3 inches) in one of eight colors presented at the center of a touchscreen. Evaluation began when the monkey touched the sample image, at which point the screen became blank for a retention period. Following the retention period, four choice images (150 × 200 pixels) were presented, one in each corner of the screen. One of the four choice images matched the color of the sample image, whereas the three remaining ‘distractor’ images were drawn from the pool of remaining colors. A reinforcer was provided when the monkey touched the choice image that matched the color of the sample image. […] Test sessions comprised 96 trials or lasted for up to 45 min. […] Response latencies to sample and choice images were also recorded. Values reported reflect the proportion of correct responses collapsed over all retention intervals. Differences from vehicle were examined using repeated measures ANOVA.

[8] = test system: rhesus monkeys; assay: Monkey Serial Choice Reaction Time (SCRT) task; format: in vivo; settings: 10 mg/kg p.o., versus vehicle, 10 mg/kg
Description: Each SCRT trial was initiated with the appearance of 10 blue square ‘target’ images evenly distributed at 3-inch intervals around the perimeter of a touchscreen presented together with a centrally located circular ‘centering’ image (1.4 inch diameter circle). The task began with the monkey touching the centering image, which then turned gray. The monkey was then required to touch the centering image continuously throughout a variable pre-cue interval of 0.25-7.5 s. On completion of the pre-cue interval, one of the blue target images was cued by turning red for one of four cue durations before turning back to blue. To obtain a reward, the monkey was required to touch the target image that had been ‘cued’ red within a 5 s limited hold period. […] On completion of the trial, an inter-trial interval of 2 s was initiated prior to the next trial. […] If the monkey initiated a trial but removed its hand from the touchscreen prior to the appearance of the cue, the trial was terminated and the screen was blanked during a 2 s inter-trial interval. Sessions were terminated after 20 min. Cue location and duration were pseudo-randomly assigned. Cue duration and the target size were titrated for each subject on the basis of performance during previous baseline sessions to yield a performance of 60–80% correct responses for the trials of the shortest cue duration. The briefest cue duration varied from 0.04–0.1 s and the cues varied in size from 0.2–0.7 inches, although each cue had the same touch-sensitive area of 1.75 inches. Values reported in the current study reflect the proportion of correct responses to targets after cues of the shortest duration only.

[9] = test system: rhesus monkeys; settings: sleep-promoting doses; cited from earlier work

Question: With `CNC(=O)[C@@H](c1ccccc1)N1CCc2cc(OC)c(OC)cc2[C@@H]1CCc1ccc(C(F)(F)F)cc1` [Almorexant] as the molecule, how does the “Duration of active wake reduction following treatment” value ([1]; dosed during active phase) read?
Answer: up to 7.5 h

Question: And the “Duration of active wake reduction following treatment” value ([1]; inactive-phase treatment)?
Answer: up to 11 h

Question: And the “Levels within the CSF at 10 h” value [2]?
Answer: undetectable

Question: What about the “OX2R occupancy above which significant changes appeared” value [3] of the same molecule?
Answer: above 89%

Question: And the “OX2R occupancy at which efficacy was not observed” value [3]?
Answer: 78%

Question: What about the “KON (association constant)” value [4] of the same molecule?
Answer: 1.58e+07 mol⁻¹ min⁻¹

Question: And the Kd [4]?
Answer: 0.048 nM

Question: What about the “T1/2 OFF (half-life off-rates)” value [4] of the same molecule?
Answer: 4.47 h

Question: And the “T1/2 ON (binding half-life)” value [4]?
Answer: 162^a min

Question: And the koff [4]?
Answer: 4.49e-05 s⁻¹

Question: And the “OX2R occupancy at 10 h” value [5]?
Answer: remained elevated

Question: Which “Active wake late in the inactive phase and next morning (residual sleep effect)” value [6] does the source give for `CN1C(=O)CN=C(c2ccccc2)c2cc(Cl)ccc21` [Diazepam] here?
Answer: promoted sleep throughout the normal resting period and into the subsequent active phase

Question: And the “Active wake late in the inactive phase and next morning (residual sleep effect)” value ([6]; listed as diazepam)?
Answer: significantly attenu-ated active wake

Question: What about the “Next-day recognition memory (DMS), 14 h after dosing” value [7] of the same molecule?
Answer: impacted memory and attention

Question: What about the “Next-day recognition memory (DMS), 14 h after dosing” value ([7]; listed as diazepam) of the same molecule?
Answer: Significant deficits

Question: What about the “Next-day attention (SCRT, correct responses to shortest cues), 16 h after dosing” value [8] of the same molecule?
Answer: impacted memory and attention

Question: And the “Next-day attention (SCRT, correct responses to shortest cues), 16 h after dosing” value ([8]; listed as diazepam)?
Answer: significant deficits

Question: What about the “Cognitive assessment in DMS and SCRT tasks within 2 h following treatment” value [9] of the same molecule?
Answer: substantial deficits

Question: With `Cc1ccc(-c2ncccn2)c(C(=O)N2C[C@H](COc3ccc(F)cn3)CC[C@H]2C)c1` [MK-6096, [(2R,5R)-5-{[(5-fluoropyridin-2-yl)oxy]methyl}-2-methylpiperidin-1-yl][5-methyl-2-(pyrimidin-2-yl)phenyl]methanone] as the molecule, how does the “KON (association constant)” value [4] read?
Answer: 1.69e+07 mol⁻¹ min⁻¹

Question: What about the Kd [4] of the same molecule?
Answer: 0.338 nM

Question: And the “T1/2 OFF (half-life off-rates)” value [4]?
Answer: 1.97 h

Question: And the “T1/2 ON (binding half-life)” value [4]?
Answer: 62.9 min

Question: What about the koff [4] of the same molecule?
Answer: 0.000113 s⁻¹

Question: What does the source list for `Cc1nc(C(=O)N2CCCC[C@H]2CNC(=O)c2cccc3occc23)c(-c2ccc(F)cc2)s1` [SB-649868]?
Answer: KON (association constant) [4]: 2.56e+07 mol⁻¹ min⁻¹; Kd [4]: 0.163 nM; T1/2 OFF (half-life off-rates) [4]: 0.95 h; T1/2 ON (binding half-life) [4]: 37.0 min; koff [4]: 0.00021 s⁻¹

Question: With `Cc1ccc(-c2nc3ccc(C)cn3c2CC(=O)N(C)C)cc1` [Zolpidem] as the molecule, how does the “Cognitive assessment in DMS and SCRT tasks within 2 h following treatment” value [9] read?
Answer: substantial deficits
